{"source": "patent US12133909B2", "about": "“Use of evodone or a derivative thereof as a cooling agent” (ROBERTET S.A., priority 2019, dated 2024)", "key": {"[1]": {"test": "Cooling effect of creams rated on a 0 to 3 scale after application onto the forearms", "assay_type": "in vivo, human", "details": "1% in cream, forearm sensory score", "procedure": "To measure the cooling effect, 100 mg of one of the creams 1 to 4 or of a placebo are applied onto the inner side of both forearms of persons who have agreed to test the product. After one minute, each participant is asked to rate the cooling effect on a scale of 0 to 3 (i.e. score), with 3 being the maximum effect.\nEach cream (including the placebo) is applied randomly and blindly to the forearms of 17 people."}, "[2]": {"test": "Skin temperature by thermal camera after application of creams on the back", "assay_type": "in vivo, human", "details": "1% in cream", "procedure": "For this study, the cooling effect of 5 compositions containing different cooling agents is evaluated in vivo according to the following protocol.\n22 female subjects aged from 18 to 63 were selected. On the back of each subject, between the two scapulas, six areas of 3 cm×2.5 cm are delimited. On 5 areas chosen each time randomly, 15 mg of the compositions to be tested are applied. Nothing is applied onto the sixth area (i.e. control).\nFrom the time of application of the creams (T0), the skin temperature of the different zones is measured on each subject using a thermal camera (Thermovision SC6000HS (Flirsystems)—resolution 640×512—frequency 125 Hz) at the following times: T0, T0+15 s, T0+30 s, T0+45 s, T0+1 min, T0+1 min30 s, T0+2 min, T0+3 min, T0+4 min, T0+5 min, T0+6 min, T0+8 min and T0+10 min. The measurements are performed at 21° C.±1.5° C., the subject lying on their stomach and motionless. The temperatures are measured with an accuracy of around 0.10° C.\nA variance test (ANOVA) is used to compile and validate the results. […]\nIf these two conditions are met, the statistical analysis allowing comparing the parameters measured at the different times is conducted by a one-factor variance analysis (ANOVA) test on repeated measurements. […]"}}, "data": [{"smiles": "Cc1coc2c1C(=O)CC(C)C2", "note": "(stereo not drawn) [evodone, 6-dimethyl-6,7-dihydro-5H-1-benzofuran-4-one]", "values": [{"measurement": "Cooling effect compared with citriodiol or cubebol", "setting": "[1]", "result": "cooling effect similar to that which can be provided by molecules such as citriodiol or cubebol"}, {"measurement": "Cooling effect compared with menthyl lactate (Frescolat ML)", "setting": "[1]", "result": "significantly greater than that obtained with menthyl lactate"}, {"measurement": "Cooling effect compared with menthyl lactate, citriodiol or cubebol", "setting": "[2]", "result": "cooling effect similar to that which can be provided by molecules such as menthyl lactate"}]}]}
